“And” between values parts separate entries of the source, which are not always exact repeats. Identical values can stand only once. Like-named read-outs stand apart in the source and are kept apart here.
Key:
His10-PGRMC1 [1] = biological target: T1, His10-PGRMC1 (Homo sapiens, UniProt O00264); experiment: PGRMC1 binding assay: [^3H] ligand binding to purified bacterial membranes expressing His10-PGRMC1 (+PGRMC1); details: for Membrane-Associated [^3H] Ligand / Kd / Q1 / Q2: +PGRMC1 membranes; for Membrane-Associated [^3H] Ligand, Specific: Specific (+PGRMC1 minus −PGRMC1); for saturability of specific binding: ligand concentration spanning four orders of magnitude, FIG. 8; for His10-PGRMC1 specific binding with proteolyzed membranes: membranes trypsin-treated prior to ligand binding; for ligand bound at saturation/equilibrium in time course: 37° C; for ligand bound at saturation/equilibrium in time course / time to reach saturation/equilibrium of binding: FIG. 5, time course; for Q1: number of non-specific sites; for Q2: number of specific sites
T1 construct: a product containing the full length coding region of PGMRC1 flanked by Nde1 and BamHI restriction sites; made in house; host or cells: E. coli BL21 (DE3) / BL21 codon plus (RIPL); purified bacterial membranes
Experimental: For bacterial expression, BL21 (DE3) cells (Stratagene, LaJolla, Calif.) were transformed with pET-16b:PGRMC1 and plated on LB agar plates containing ampicillin (amp). One to 7 days later, individual colonies were harvested and used to inoculate small volume (5-200 mL) liquid cultures of LB-amp media. Cultures were grown with shaking at 37° C. until early log phase (OD600=0.6). IPTG was added to a final concentration of […] and the cultures were incubated for another 4 hours at 37° C. or overnight at room temperature. His10-PGRMC1 (His10 disclosed as SEQ ID NO: 14) expression was confirmed by SDS-PAGE followed by Coomassie stain and western blot using mouse monoclonal anti-tetra-His (SEQ ID NO: 15) antibody (Qiagen, Valencia, Calif.).
IPTG-induced cells were harvested by centrifugation (5,000 rpm; 5 min) and washed with ice-cold H2O. The pellet was resuspended in 5 mL buffer A (50 mM Tris-HCl pH 7.5, 150 mM NaCl, 0.1% NP40, and 10% glycerol) with 5-10 mg lysozyme, and incubated on ice for 30 min. The cells were then disrupted by three bursts of sonication (45 sec) at high intensity with a 45 sec cooling period between bursts. Soluble material was removed by centrifugation (15,000 rpm, 10 min) and the pellet resuspended in 5 mL buffer A. His10-PGRMC1 (His10 disclosed as SEQ ID NO: 14) was confirmed to be present in purified membranes by SDS-PAGE followed by Coomassie stain and western blot using anti-tetra-His (SEQ ID NO: 15) antibody (Qiagen). Total protein in the His10-PGRMC1 (His10 disclosed as SEQ ID NO: 14) transformed and untransformed purified membranes was determined by the Bradford method and membranes were normalized to 10 μg/μL total protein (diluted with buffer A). Purified membranes were then aliquoted and stored frozen until use.
(§1) The standard 10 μL binding reaction contained 10 μp purified membranes (total protein) and 10 μM [^3H] progesterone or [^3H] cholesterol (3,000-5,000 cpm) in buffer A: 20% ethanol. Stock solutions (100 μM) of [^3H] cholesterol and [^3H] progesterone containing ˜4×10^4 cpm/μL, were prepared in 95% ethanol. Reactions were prepared in clear 2.0 mL microcentrifuge tubes on ice. To start the reaction, the microfuge tube was briefly mixed (vortex) and placed at 37° C. Following a 10 to 30 min incubation, the tubes were centrifuged in a microfuge (˜13,000 rpm) for 2 min. The supernatant was carefully removed and the pellet was washed with an additional 10 μL water. After a second round of centrifugation (2 min; 13,000 rpm), the resulting supernatant was combined with the first and the pellet was resuspended in 20 μL H2O, Scintillation fluid (700 μL Wallac Optiflour) was added to each fraction and the fractions were mixed extensively. The fractions were then counted in a multi-well scintillation counter (Wallac Microbeta Triluxmax, Waltham, Mass.) for 30 seconds each. Binding are reported as μ/moles of ligand bound per mg of membrane protein. His10-PGRMC1 (His10 disclosed as SEQ ID NO: 14)-specific binding is reported as the difference in binding between transformed and untransformed bacteria. Experimental deviations from the standard assay conditions are noted in individual figure legends.
In order to better understand PGRMC1's biological function and to study ligand binding, an in vitro binding assay was developed. E. coli BL21 codon plus (RIPL) cells were transformed with a vector encoding PGRMC1 that was epitope tagged with 10 histidine (SEQ ID NO: 14) residues at the NH2-terminus. Untransformed BL21 cells were used as the control. A purification procedure was performed to remove soluble proteins and cell components from the transformed (+PGRMC1) and untransformed (−PGRMC1) bacterial membranes. The resulting purified membranes were confirmed for the presence and absence of His10-PGRMC1 (His10 disclosed as SEQ ID NO: 14) respectively by Coomassie stain and western blot using anti-His antibody. The membranes with [^3H] progesterone or [^3H] cholesterol were then incubated. […]

His10-PGRMC1 [2] = biological target: T1, His10-PGRMC1; experiment: Competition of cold competitors with [^3H] progesterone or [^3H] cholesterol for His10-PGRMC1 binding; details: for effect of cold competitor on binding of [^3H] cholesterol: competitor at ten-fold higher concentration; for effect of cold competitor on specific binding of [^3H] progesterone: excess cold competitor (10 or 100-fold), FIG. 9
Experimental: as §1
To test whether progesterone and cholesterol compete for the same specific binding site, the direct binding of [^3H] progesterone or [^3H] cholesterol to His10-PGRMC1 (His10 disclosed as SEQ ID NO: 14) in the presence of various cold competitors was examined. In these experiments, the standard amount of [^3H] ligand was combined with a cold competitor at either 10 or 100-fold higher concentration and mixed well to ensure homogeneity. These stock ligand solutions were then used in the standard binding assay as described.
The ability of other putative ligands reported in the literature to compete with progesterone binding was examined. […] As a control, cold progesterone (P) was used as a competitor and it was observed that excess cold progesterone competes with [^3H] progesterone for His10-PGRMC1 (His10 disclosed as SEQ ID NO: 14) binding. Contrastingly, binding of [^3H] cholesterol to His10-PGRMC1 (His10 disclosed as SEQ ID NO: 14) was unaffected by the presence of progesterone, ergosterol, or heme at ten-fold higher concentrations (FIG. 9, cholesterol). It was not until competitor concentrations were 100-fold higher than ligand that a reduction of cholesterol binding was observed.

[3] = Protease + (trypsin before ligand binding)
[4] = two binding site model fit of saturation data, non-specific site, read-out: Kd1
[5] = two binding site model, specific site, read-out: Kd2

T1 sequence (O00264 whole entry): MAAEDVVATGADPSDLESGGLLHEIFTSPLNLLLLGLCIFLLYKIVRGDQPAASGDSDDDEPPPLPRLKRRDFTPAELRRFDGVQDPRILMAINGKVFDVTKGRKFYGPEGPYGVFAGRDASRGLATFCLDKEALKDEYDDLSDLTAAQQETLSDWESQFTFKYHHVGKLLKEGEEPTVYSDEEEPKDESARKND

CC(C)CCC[C@@H](C)[C@H]1CC[C@H]2[C@@H]3CC=C4C[C@@H](O)CC[C@]4(C)[C@H]3CC[C@]12C [Cholesterol, cholesterol]
Membrane-Associated [^3H] Ligand (His10-PGRMC1 [1]; [3]): 2.6 ± 0.2 nmoles/mg protein
Membrane-Associated [^3H] Ligand (His10-PGRMC1 [1]; Protease −): 5.2 ± 0.3 nmoles/mg protein
Membrane-Associated [^3H] Ligand, Specific (His10-PGRMC1 [1]; Protease +): 0.0 ± 0.2 nmoles/mg protein
Membrane-Associated [^3H] Ligand, Specific (His10-PGRMC1 [1]; Protease −): 1.5 ± 0.2 nmoles/mg protein
cholesterol binding relative to progesterone binding (His10-PGRMC1 [1]; higher at every time point of the time course): 2-3 fold
saturability of specific binding (His10-PGRMC1 [1]): did not appear to be saturable
His10-PGRMC1 specific binding with proteolyzed membranes (His10-PGRMC1 [1]): complete loss
Kd of cholesterol relative to progesterone (fold lower) (His10-PGRMC1 [1]; specific site, two binding site model): 15 fold
ligand bound at saturation/equilibrium in time course (His10-PGRMC1 [1]): ~2 nmoles/mg protein
time to reach saturation/equilibrium of binding (His10-PGRMC1 [1]): approximately the same rate as progesterone
Kd (His10-PGRMC1 [1]; [4]): 1000 µM
Q1 (His10-PGRMC1 [1]; two binding site model): 9.6 × 10^9 Sites
Kd (His10-PGRMC1 [1]; [5]): 0.00035 µM
competitor excess over ligand at which a reduction of [^3H] cholesterol binding was observed (His10-PGRMC1 [2]): 100 fold
effect of cold competitor on binding of [^3H] cholesterol (His10-PGRMC1 [2]): did not begin to reduce
effect of cold competitor on specific binding of [^3H] progesterone (His10-PGRMC1 [2]): greatly reduced

CC(=O)[C@H]1CC[C@H]2[C@@H]3CCC4=CC(=O)CC[C@]4(C)[C@H]3CC[C@]12C [Progesterone, progesterone]
Membrane-Associated [^3H] Ligand (His10-PGRMC1 [1]; [3]): 1.6 ± 0.3 nmoles/mg protein
Membrane-Associated [^3H] Ligand (His10-PGRMC1 [1]; Protease −): 3.1 ± 0.3 nmoles/mg protein
Membrane-Associated [^3H] Ligand, Specific (His10-PGRMC1 [1]; Protease +): 0.0 ± 0.1 nmoles/mg protein
Membrane-Associated [^3H] Ligand, Specific (His10-PGRMC1 [1]; Protease −): 0.7 ± 0.2 nmoles/mg protein
saturability of specific binding (His10-PGRMC1 [1]): appeared to be saturable
His10-PGRMC1 specific binding with proteolyzed membranes (His10-PGRMC1 [1]): complete loss
ligand concentration at half-maximal specific binding (His10-PGRMC1 [1]; saturation experiment, FIG. 8A): approximately 50 μM
ligand bound at saturation/equilibrium in time course (His10-PGRMC1 [1]): approximately 0.5 nmoles/mg protein
time to reach saturation/equilibrium of binding (His10-PGRMC1 [1]): 15 to 30 min
Kd (His10-PGRMC1 [1]; [4]): 1000 µM
Q1 (His10-PGRMC1 [1]; two binding site model): 8.0 × 10^9 Sites
Q2 (His10-PGRMC1 [1]; two binding site model): 19,260 Sites
Q2 (His10-PGRMC1 [1]; two binding site model, listed as progesterone): approximately 20,000 Sites
Kd (His10-PGRMC1 [1]; [5]): 0.0055 µM and 0.00554 µM
effect of cold competitor on binding of [^3H] cholesterol (His10-PGRMC1 [2]): unaffected
effect of cold competitor on specific binding of [^3H] progesterone (His10-PGRMC1 [2]): competes

Reference: patent publication US8187821B2, “Compositions and methods for the modulation of PGRMC1” (University of Utah Research Foundation, priority 2008, dated 2012)
